Experimental findings from PMC5891061, “Electrophysiological mechanisms of vandetanib-induced cardiotoxicity: Comparison of action potentials in rabbit Purkinje fibers and pluripotent stem cell-derived cardiomyocytes” (PLoS ONE, 2018) are described below.

The target in one series is INa in hiPSC-CMs (Homo sapiens, UniProt Q14524). Briefly: INa current in hiPSC-CMs (voltage clamp). The series is classed as cell-based. The arrangement: INa current: unit not given here.
Another series concerns the target T1, SCN5A (INa) (Homo sapiens, UniProt Q14524).
T1 construct: expressed in transfected cells; host or cells: HEK293
Briefly: Whole-cell patch clamp, INa in SCN5A-transfected HEK293 cells. The series is classed as cell-based. To be noted: for INa current: HEK293. The source says:
For various aspects of cardiac ion channel study, human embryonic kidney (HEK293; ATCC, Manassas, VA, USA) cells were transiently transfected using lipofectAmin2000 (Gibco BRL, New York, NY, USA) according to the manufacturer’s instructions. The hERG (human ether-ago-go-related gene corresponding to IKr), KCNQ1/KCNE1 (the gene corresponding to IKs), KCNJ2 (the gene corresponding to IK1) or SCN5A (the gene corresponding to INa) cDNA was co-transfected with green fluorescence protein, the surface marker protein, to allow assessment of the transfection efficiency. For the calcium current, enzymatically isolated single rat ventricular myocytes were used. Briefly, the hearts were rapidly excised from anaesthetized Sprague–Dawley rats (250–350 g) and perfused via the aorta on a Langendorff apparatus with an oxygenated normal Tyrode (NT) solution for 5 min. To clear the blood, then perfused with Ca^2+-free normal Tyrode solution for 3 min. Next, the heart was perfused with enzyme solution containing 0.6 mg/mL collagenase (Worthington Biomedical Corp., Lakewood, NJ, USA) for 30–40 min. Finally, this enzyme-containing solution was washed out for 5 min. with a high-K^+ and low-Cl^-) Kraft-Bruhe solution. Following the isolation procedure, the left ventricle was dissected out and agitated mechanically with a fire-polished Pasteur pipette in Kraft-Bruhe solution to obtain single myocytes. The isolated myocytes were stored at 4°C until use.
The external solution for recording the IhERG, IKs and INa channel currents was NT solution. […] Kraft-Bruhe solution for storage of the freshly isolated rat ventricular myocytes contained (in mM): 70 K-glutamate, 55 KCl, 10 HEPES, 3 MgCl2, 20 taurine, 20 KH2PO4, 0.5 ethylene glycol tetra acetic (K-EGTA) (pH 7.2 with KOH).
pCLAMP (Axon Instruments, Foster City, CA, USA), Origin 8 (OriginLab Corp, Northampton, MA, USA), and Excel (Microsoft, Redmond, WA, USA) were used for data acquisition and analysis. The concentration–response relationships for drug-induced blockage were calculated using SigmaPlot (Systat Software, San Jose, CA, USA). […] Data are presented as the means ± SEM, and n represents the number of experimental replicates. Statistical significance was determined using the Student’s t-test and one-way ANOVA with post hoc testing using Dunnett’s method; p < 0.05 was considered to indicate statistical significance.
For hERG tail current, the cells were depolarized for 2 s to +20 mV from a holding potential of -80 mV followed by a 3 s repolarization back to -40 mV. […] For slow delayed rectifier potassium current (IKs) recording, the cells were depolarized for 3s to +60 mV from a holding potential of -80 mV, followed by a 3 s repolarization back to -40 mV (Fig 2B). […]
In general terms: The patch-clamp technique gives a direct electrical read-out from membranes.

For another series, the target named is WT (inward) hERG (Homo sapiens, UniProt Q12809). To be noted: 3 μM, -120 mV, high K+. The text has this: (§1) The hERG mutations were constructed by site-directed mutagenesis of WT hERG cDNA in pcDNA3.1 vector using the QuickChange Site-Directed Mutagenesis Kit (Stratagene), and the integrity of the construct was verified by DNA sequencing. The WT hERG (generously donated by Professor Ho, Seoul National University, Korea) and mutant channels were transiently expressed in an HEK-293 cell line using Lipofectamine 2000 (Gibco), according to the manufacturer’s recommendations.

Series [1] deals with WT hERG (inward tail current) (Homo sapiens, UniProt Q12809). Particulars: human, HEK-293 cells transiently expressing wild-type hERG.
Description: as §1
(hERG is a cardiac potassium channel; its block is linked to QT prolongation.)

The target of another series is T623A hERG (Homo sapiens, UniProt Q12809, T623A). To be noted: 3 μM.
Description: as §1

Sequence of INa in hiPSC-CMs (Q14524 212-1075 limits assumed): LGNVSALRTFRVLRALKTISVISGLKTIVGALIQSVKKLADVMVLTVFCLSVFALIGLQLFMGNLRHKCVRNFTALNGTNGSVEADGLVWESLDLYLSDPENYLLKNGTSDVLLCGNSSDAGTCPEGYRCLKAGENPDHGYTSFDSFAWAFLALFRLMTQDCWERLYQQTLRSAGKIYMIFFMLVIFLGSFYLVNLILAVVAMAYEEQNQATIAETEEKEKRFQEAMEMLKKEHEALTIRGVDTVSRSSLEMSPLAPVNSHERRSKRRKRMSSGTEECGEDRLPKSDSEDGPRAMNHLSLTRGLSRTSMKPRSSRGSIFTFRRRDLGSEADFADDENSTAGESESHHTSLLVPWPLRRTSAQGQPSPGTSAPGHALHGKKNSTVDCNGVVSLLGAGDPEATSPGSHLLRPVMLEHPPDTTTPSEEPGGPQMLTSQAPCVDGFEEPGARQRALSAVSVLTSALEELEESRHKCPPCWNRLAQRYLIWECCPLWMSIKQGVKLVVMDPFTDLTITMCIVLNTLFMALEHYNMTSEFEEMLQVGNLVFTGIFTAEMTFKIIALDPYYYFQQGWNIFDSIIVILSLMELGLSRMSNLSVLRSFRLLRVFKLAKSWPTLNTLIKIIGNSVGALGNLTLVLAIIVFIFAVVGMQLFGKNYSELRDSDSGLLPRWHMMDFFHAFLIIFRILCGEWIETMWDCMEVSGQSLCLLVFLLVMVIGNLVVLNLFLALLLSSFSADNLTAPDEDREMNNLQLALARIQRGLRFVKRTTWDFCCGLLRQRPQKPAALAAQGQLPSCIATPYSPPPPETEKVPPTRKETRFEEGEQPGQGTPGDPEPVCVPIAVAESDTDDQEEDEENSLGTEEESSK
Sequence of INa in hiPSC-CMs (Q14524 1131-2016 limits assumed): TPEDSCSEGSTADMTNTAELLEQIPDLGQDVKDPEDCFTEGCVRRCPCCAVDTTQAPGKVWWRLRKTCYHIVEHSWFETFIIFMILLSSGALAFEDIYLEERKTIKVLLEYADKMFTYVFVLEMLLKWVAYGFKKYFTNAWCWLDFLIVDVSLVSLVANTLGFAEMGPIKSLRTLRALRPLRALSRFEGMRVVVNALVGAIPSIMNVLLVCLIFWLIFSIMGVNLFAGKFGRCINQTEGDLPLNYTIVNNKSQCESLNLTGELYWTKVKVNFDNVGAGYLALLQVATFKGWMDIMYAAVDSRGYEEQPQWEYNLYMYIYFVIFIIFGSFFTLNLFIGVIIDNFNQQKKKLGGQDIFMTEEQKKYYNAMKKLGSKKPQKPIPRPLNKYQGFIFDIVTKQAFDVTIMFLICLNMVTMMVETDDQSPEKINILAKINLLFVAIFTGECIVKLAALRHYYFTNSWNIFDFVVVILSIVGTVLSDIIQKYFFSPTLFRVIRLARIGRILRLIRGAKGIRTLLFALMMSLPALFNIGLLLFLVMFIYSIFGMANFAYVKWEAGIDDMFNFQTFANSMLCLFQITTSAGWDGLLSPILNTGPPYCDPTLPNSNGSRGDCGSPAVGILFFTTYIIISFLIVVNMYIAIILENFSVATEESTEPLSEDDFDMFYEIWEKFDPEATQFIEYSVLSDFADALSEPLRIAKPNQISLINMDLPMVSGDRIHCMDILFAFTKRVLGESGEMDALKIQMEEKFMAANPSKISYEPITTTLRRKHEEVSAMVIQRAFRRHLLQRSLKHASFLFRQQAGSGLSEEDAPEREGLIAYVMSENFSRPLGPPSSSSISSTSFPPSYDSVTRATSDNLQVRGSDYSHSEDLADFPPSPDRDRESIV
T1 sequence (Q14524 whole entry, species assumed): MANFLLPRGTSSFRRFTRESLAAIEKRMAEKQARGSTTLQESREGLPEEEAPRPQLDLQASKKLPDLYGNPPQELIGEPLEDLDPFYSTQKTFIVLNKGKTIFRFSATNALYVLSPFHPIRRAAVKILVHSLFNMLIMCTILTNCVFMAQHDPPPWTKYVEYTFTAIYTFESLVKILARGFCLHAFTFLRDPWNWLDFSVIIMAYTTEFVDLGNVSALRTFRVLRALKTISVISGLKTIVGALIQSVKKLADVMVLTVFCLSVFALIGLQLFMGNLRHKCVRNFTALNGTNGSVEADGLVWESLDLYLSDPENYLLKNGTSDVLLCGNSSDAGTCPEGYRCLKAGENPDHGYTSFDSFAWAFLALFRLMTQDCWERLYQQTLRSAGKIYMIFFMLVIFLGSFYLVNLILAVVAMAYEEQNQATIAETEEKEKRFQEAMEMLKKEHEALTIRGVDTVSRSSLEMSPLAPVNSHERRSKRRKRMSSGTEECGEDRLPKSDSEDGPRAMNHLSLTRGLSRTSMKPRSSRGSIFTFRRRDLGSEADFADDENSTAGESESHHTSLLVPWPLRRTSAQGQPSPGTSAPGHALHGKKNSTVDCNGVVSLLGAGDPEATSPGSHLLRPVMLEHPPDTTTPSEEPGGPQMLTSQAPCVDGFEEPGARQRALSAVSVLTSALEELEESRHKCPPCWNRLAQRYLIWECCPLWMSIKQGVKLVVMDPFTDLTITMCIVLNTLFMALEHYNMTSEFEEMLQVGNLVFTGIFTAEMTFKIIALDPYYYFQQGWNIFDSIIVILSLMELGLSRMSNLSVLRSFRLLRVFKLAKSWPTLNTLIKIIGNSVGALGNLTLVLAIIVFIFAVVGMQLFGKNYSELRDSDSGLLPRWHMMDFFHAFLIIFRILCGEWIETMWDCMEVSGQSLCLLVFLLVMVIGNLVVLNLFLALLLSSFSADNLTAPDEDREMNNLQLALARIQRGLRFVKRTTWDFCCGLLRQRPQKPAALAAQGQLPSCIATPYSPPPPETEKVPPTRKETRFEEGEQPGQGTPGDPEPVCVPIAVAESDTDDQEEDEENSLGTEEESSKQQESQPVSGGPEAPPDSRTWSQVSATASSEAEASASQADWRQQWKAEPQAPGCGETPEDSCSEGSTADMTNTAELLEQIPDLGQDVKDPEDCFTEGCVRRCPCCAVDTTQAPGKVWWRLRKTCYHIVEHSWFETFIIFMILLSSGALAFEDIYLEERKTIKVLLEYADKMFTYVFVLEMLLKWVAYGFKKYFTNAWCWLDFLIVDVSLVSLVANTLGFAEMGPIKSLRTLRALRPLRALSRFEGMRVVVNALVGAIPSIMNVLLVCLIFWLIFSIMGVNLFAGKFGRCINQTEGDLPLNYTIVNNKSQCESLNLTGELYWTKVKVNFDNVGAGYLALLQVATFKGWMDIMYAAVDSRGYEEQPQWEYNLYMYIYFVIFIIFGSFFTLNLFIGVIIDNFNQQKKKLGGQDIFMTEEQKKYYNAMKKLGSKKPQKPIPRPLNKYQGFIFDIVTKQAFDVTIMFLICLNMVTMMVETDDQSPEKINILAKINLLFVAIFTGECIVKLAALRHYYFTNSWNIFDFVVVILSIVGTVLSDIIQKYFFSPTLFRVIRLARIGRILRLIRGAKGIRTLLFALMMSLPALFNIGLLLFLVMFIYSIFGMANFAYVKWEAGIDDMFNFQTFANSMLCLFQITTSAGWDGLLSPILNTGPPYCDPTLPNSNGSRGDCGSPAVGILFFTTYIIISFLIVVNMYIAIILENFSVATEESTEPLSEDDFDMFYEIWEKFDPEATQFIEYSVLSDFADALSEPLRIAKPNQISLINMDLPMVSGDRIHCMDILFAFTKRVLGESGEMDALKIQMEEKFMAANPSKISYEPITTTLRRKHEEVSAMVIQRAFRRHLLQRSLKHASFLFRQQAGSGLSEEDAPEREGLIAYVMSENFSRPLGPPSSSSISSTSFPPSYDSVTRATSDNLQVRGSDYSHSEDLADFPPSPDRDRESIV

As usually defined, the IC50 is the concentration that inhibits the measured activity by half. Usually inhibition stands for the relative decrease from the control value, in per cent. `COc1cc2c(Nc3ccc(Br)cc3F)ncnc2cc1OCC1CCN(C)CC1` [Vandetanib]: the values for the IC50 against INa in hiPSC-CMs and on SCN5A (INa) (SCN5A-encoded HEK293 cells) were 2720 nM and 36.6 µM, respectively. Besides, the INa current at INa in hiPSC-CMs (1 μM) is on record as -4046.1 ± 53.7; at INa in hiPSC-CMs (3 μM), -2284.0 ± 79.5; on INa in hiPSC-CMs (10 μM), -1205.7 ± 89.8; on INa in hiPSC-CMs (30 μM), -643.2 ± 33.6; on SCN5A (INa) (10 μM), -948.9 ± 24.2; at SCN5A (INa) (30 μM), -743.0 ± 85.1. The molecule further came in with an INa current at SCN5A (INa) (100 μM) of -94.2 ± 36.8. The “WT (inward) hERG current” value at WT (inward) hERG is given as -1818.9 ± 217.3. In series [1], the inhibition at 3 μM turned out to be 69 ± 1.8%. Moreover, the “T623A hERG current” value at T623A hERG turned out to be 266.1 ± 117.0.
